Test results taken from patent US5446045A, “Antiviral guanine analogs” (priority 1993, dated 1995).
Converted amounts (≈) assume the structure as drawn.

Experiments:
[1] = literature ref. 3-7; cited from earlier work
viruses [2] = conditions: literature ref. 3; cited from earlier work
viruses [3] = conditions: literature ref. 3; cited from earlier work; remark: listed apart in the source
[4] = tested on: Human cytomegalovirus (HCMV) strain AD169; assay: HCMV plaque reduction (cytopathic effect) assay, strain AD169 in MRC-5 cells; assay type: cell-based; conditions: Human betaherpesvirus 5, AD169/MRC5, read-out: IC50 (median inhibitory concentration)
Experimental: (§1) Vero and MRC-5 cells were obtained from ATCC. Human foreskin fibroblast (HFF) and Vero cells were routinely grown in minimal essential medium (MEM) with Earle salts [MEM(E)]supplemented with 10% fetal bovine serum (FBS). MRC-5 cells were grown in Basal Medium Eagle (BME) with 10% FBS and 0.035% NaHCO3. Cells were passaged according to conventional procedures.^33 Human cytomegalovirus (HCMV) strains AD169 and Towne were obtained from the ATCC. Herpes simplex virus type i and type 2 (HSV1 and HSV2) are commercially available.
Two different plaque reduction assays were employed to determine the antiviral efficacy of the test compounds in culture. The first assay used MRC-5 cells and the AD169 strain of HCMV. The second assay used HFF cells and the Towne strain of HCMV. In experiments using MRC-5 cells the growth medium was removed from monolayer cultures in 24-well tissue culture plates. One mL of virus (AD169), diluted in test medium (Dulbecco's modified Eagle medium (DMEM), 2% FBS, 0.1% NaHCO3 and 50 ug gentamicin/mL) was used. The 24-well plates were centrifuged at 2200 rpm for 30 minutes at room temperature to allow the virus to adsorb. Medium was then aspirated from each well of the plates. The individual dilutions of each compound (prepared in test medium) were placed in each test well (0.8 mL/well, 4 wells/dilution). All plates were incubated at 37° C. in a moist atmosphere of 5% CO2. When virus plaques had formed in control cells (HCMV infected, untreated) the medium was aspirated from all wells, and the cells were stained by adding 0.3 mL of 0.2% crystal violet in 10% buffered formalin to each well. After 15 minutes, the stain was removed, cells were rinsed in tap water until the water was clear, and the plates were inverted and dried at room temperature. Plaques were counted by use of a dissecting microscope.
(§2) Ganciclovir was used as an anti-HCMV standard in all HCMV assays.
(§3) I. A series of guanine analogs containing an alkyl side chain in place of sugar moiety were evaluated for their ability to inhibit HCMV production in acute infection assays in culture and for cytotoxicity in HFF and MRC-5 cells.
(§4) III. Table 1 lists the median inhibitory concentration (IC50) for all compounds tested against HCMV strains AD169 or Towne. In addition this table lists the median toxic concentrations of these compounds (TC50) as determined by visual observation of uninfected cells treated with various concentrations of drug.
Plaque reduction assays were employed to determine the antiviral efficacy of the test compounds in culture. MRC-5 cells and the AD169 strain of FICMV were used. Growth medium was removed from monolayer cultures in 24-well tissue culture plates. One ml of virus, diluted in test medium (Dulbecco's modified Eagle medium (DMEM), 2% FBS, 0.1% NaHCO3 and 50 ug gentamicin/ml). After infection and subsequent removal of the media, individual dilutions of each compound (prepared in test medium) were placed in each test well (0.8 ml/well, 4 wells/dilution) and plates incubated at 37° C. in a moist atmosphere of 5% CO2. When virus plaques have formed in control cells (HCMV infected, untreated) the medium was aspirated from all wells, and the cells stained by adding 0.3 ml of 0.2% crystal violate in 10% buffered formalin to each well. Plaques were counted by use of a dissecting microscope. Ganciclovir was used as an anti-HCMV standard in all HCMV assays.

[5] = Visual cytotoxicity in stationary uninfected MRC-5 cells; assay type: cell-based; conditions: human, AD169/MRC5 system, visual observation of stationary uninfected MRC5 cells, read-out: TC50 (median toxic concentration)
Experimental: (§5) Stationary uninfected HFF and MRC-5 cells were evaluated for visual cytotoxicity on the scoring basis of 0 (no visual cytotoxicity at 20 fold magnification) to 4 (cell sheet nearly destroyed). Cytotoxicity as measured by inhibition of cell growth was performed in Vero cells using a CellTiter 96™ Aqueous Non-Radioactivity Cell Proliferation Assay (Promega). Cytotoxicity assays were performed using a 4 day incubation of test compound with Vero cells plated at 500 cells/well. Each assay was performed in quadruplicate. The resultant data are averaged, graphed and then used to calculate the TC50 (median toxic concentration) for the compound tested.
as §3, §4

[6] = tested on: Herpes simplex virus type 1 (HSV1); assay: Inhibition of HSV1 in Vero cells (CPE assay); assay type: cell-based; conditions: Human alphaherpesvirus 1, CPE scored 40 to 48 h post-infection
Experimental: as §1
(§6) Vero cells were plated at 4×10^4 cells/well in a 96-well microtitre dish in 0.1 mL of MEM(E) with 10% FBS 24 h before infection with virus. The cells were incubated at 37° C. in a 5% CO2 atmosphere. The medium was then removed and 50 μL of media containing 30 to 50 PFU of virus was allowed to adsorb to the cells for 10 minutes at 37° C. The virus containing medium was then removed and the cells were rinsed 3 times with fresh media. A final 100 μL aliquot of fresh medium, containing the various dilutions of test compounds, was then added to each well and the plates were then incubated at 37° C. Plaques were observed 24 hr post-infection and the degree of cytopathic effect scored 40 to 48 h post-infection. Acyclovir was used as a standard in all ttSV assays.
(§7) I. The same compounds used in Example 31 were also assayed for their ability to inhibit herpes simplex viruses type 1 and type 2 in acute infection assays in culture.
(§8) III. The toxic effect of these compounds on actively dividing Vero cells is reported. For all values listed as >x, x is the highest concentration tested for the respective compound.
(§9) Vero cells were plated in a 96-well microtitre dish in 0.1 ml of MEM(E) with 10% FBS 24 hours before infection with virus. The medium will then be removed and 50 ul of media containing 30 to 50 PFU of virus were allowed to adsorb to the cells for 10 minutes at 37° C. The virus-containing medium will then be removed and the cells rinsed 3 times with fresh media. A final 100 ul aliquot of fresh medium, containing the various dilutions of test compounds, were added to each well and the plates incubated at 37° C. Plaques were observed 24 hours post-infection and the degree of cytopathic effect scored 40 to 48 hours-post infection. Acyclovir was used as a standard in all HSV assays.

[7] = tested on: Herpes simplex virus type 2 (HSV2); assay: Inhibition of HSV2 in Vero cells (CPE assay); assay type: cell-based; conditions: Human alphaherpesvirus 2, CPE scored 40 to 48 h post-infection
Experimental: as §1, §6, §7, §8, §9

[8] = Cytotoxicity (inhibition of cell growth) in actively dividing Vero cells, CellTiter 96 assay; assay type: cell-based; conditions: african green monkey, 4 day incubation, read-out: Cytotoxicity (TC50)
Experimental: as §1, §5
III. […] For all values listed as >x, x is the highest concentration tested for the respective compound.

[9] = tested on: Human cytomegalovirus (HCMV) strain Towne; assay: HCMV plaque reduction (cytopathic effect) assay, strain Towne in HFF cells; assay type: cell-based; conditions: Human betaherpesvirus 5, HFF, read-out: IC50 (median inhibitory concentration)
Experimental: as §1
A similar set of experiments designed to monitor HCMV plaque reduction were performed with monolayer cultures of HFF and the Towne strain of HCMV using procedures similar to those reported by Turk et al.^34 Diploid HFF cells were plated 24 hr before use at approximately 1×10^5 cells/plate. These monolayer cultures were infected with 100 plaque forming units (PFU) of virus. The compounds to be assayed were dissolved in culture medium. Viral adsorption was allowed to proceed for 1 hr at which time virus containing medium was removed and replaced with medium containing the various dilutions of the test compounds. Plaques were counted using crystal violet as described above.
as §2, §3, §4

[10] = Visual cytotoxicity in stationary uninfected HFF cells; assay type: cell-based; conditions: human; Towne/HFF system; visual observation of stationary uninfected HFF cells; read-out: TC50 (median toxic concentration)
Experimental: as §1, §5, §3, §4

DNA viruses = conditions: literature refs. 14-17; cited from earlier work

## Nc1nc2c(sc(=O)n2[C@@H]2O[C@H](CO)[C@@H](O)[C@H]2O)c(=O)[nH]1 [7-thia-8-oxoguanosine]
[1]
  immunomodulatory activity: demonstrated immunomodulatory activity
Viruses [2]
  antiviral activity in the host animal: broad spectrum of antiviral activity
Viruses [3]
  antiviral activity in vitro: virtually inactive

## CCCCCCn1c(=O)sc2c(=O)[nH]c(N)nc21 [Compound R1132-30]
[4]
  IC50: 0.45 µg/mL (≈ 1.68 µM)
[5]
  CC50: 1.2 µg/mL (≈ 4.47 µM)
[6]
  IC50: > 1.2 µg/mL
[7]
  IC50: > 1.2 µg/mL
[8]
  CC50 at 96 h: > 1 µg/mL

## CCCCCn1c(=O)sc2c(=O)[nH]c(N)nc21 [Compound R1132-36]
[4]
  IC50: 0.2 µg/mL (≈ 0.786 µM)
[9]
  IC50: 17 µg/mL (≈ 66.8 µM)
[5]
  CC50: 4 µg/mL (≈ 15.7 µM)
[10]
  CC50: 100 µg/mL (≈ 393 µM)
[6]
  IC50: > 5.1 µg/mL
[7]
  IC50: > 5.1 µg/mL
[8]
  CC50 at 96 h: > 5 µg/mL

## CC(C)=CCn1c(=O)sc2c(=O)[nH]c(N)nc21 [Compound R1132-72, 5-Amino-3-(3-methylbut-2-ene-1-yl)thiazo lo[4,5-d]-pyrimidine-2,7(3H,6H)-dione]
[4]
  IC50: 4 µg/mL (≈ 15.9 µM)
[9]
  IC50: 1.7 µg/mL (≈ 6.74 µM)
[5]
  CC50: > 100 µg/mL
[10]
  CC50: 100 µg/mL (≈ 396 µM)
[6]
  IC50: 5.6 µg/mL (≈ 22.2 µM)
[7]
  IC50: 5.6 µg/mL (≈ 22.2 µM)
[8]
  CC50 at 96 h: 20 µg/mL (≈ 79.3 µM)

## CCCCC(CCCC)n1c(=O)sc2c(=O)[nH]c(N)nc21 [Compound R1132-73, 5-Amino-3-(nonan-5-yl)thiazolo[4,5-d]-pyrimidine-2,7(3H, 6H)-dione]
[4]
  IC50: 9.4 µg/mL (≈ 30.3 µM)
[9]
  IC50: 4.7 µg/mL (≈ 15.1 µM)
[5]
  CC50: 178 µg/mL (≈ 573 µM)
[10]
  CC50: 11.1 µg/mL (≈ 35.8 µM)
[6]
  IC50: > 2.2 µg/mL
[7]
  IC50: > 2.2 µg/mL
[8]
  CC50 at 96 h: > 2.5 µg/mL

## CCC=CCn1c(=O)sc2c(=O)[nH]c(N)nc21 [Compound R1132-74, 5-Amino-3-(pent-2-ene-1-yl)thiazolo[4,5-d]-pyrimidine-2,7(3H,6H)-dione]
[4]
  IC50: < 1 µg/mL
[9]
  IC50: 0.14 µg/mL (≈ 0.555 µM)
[5]
  CC50: > 100 µg/mL
[10]
  CC50: > 100 µg/mL
[6]
  IC50: 0.53 µg/mL (≈ 2.1 µM)
[7]
  IC50: < 0.27 µg/mL
[8]
  CC50 at 96 h: > 20 µg/mL

## C=CCCCn1c(=O)sc2c(=O)[nH]c(N)nc21 [Compound R1132-75, 5-Amino-3-(pent-4-ene-1-yl)thiazolo[4,5-d]-pyrimidine-2,7(3H, 6H)-dione]
[4]
  IC50: 9.4 µg/mL (≈ 37.3 µM)
[9]
  IC50: 12 µg/mL (≈ 47.6 µM)
[5]
  CC50: 68 µg/mL (≈ 270 µM)
[10]
  CC50: > 100 µg/mL
[6]
  IC50: 16.2 µg/mL (≈ 64.4 µM)
[7]
  IC50: 8.1 µg/mL (≈ 32.1 µM)
[8]
  CC50 at 96 h: 45 µg/mL (≈ 178 µM)

## CCC(CC)n1c(=O)sc2c(=O)[nH]c(N)nc21 [Compound R1132-76, 5-Amino-3-(pentan-3-yl)thiazolo[4,5-d]-pyrimidine-2,7(3H, 6 H)-dione]
[4]
  IC50: > 100 µg/mL
[5]
  CC50: 32 µg/mL (≈ 126 µM)
[6]
  IC50: > 21.7 µg/mL
[7]
  IC50: 21.7 µg/mL (≈ 85.3 µM)
[8]
  CC50 at 96 h: 56 µg/mL (≈ 220 µM)

## CCCCCC(CCCCC)n1c(=O)sc2c(=O)[nH]c(N)nc21 [Compound R1132-77, 5-Amino-3-(undecan-6-yl)thiazolo[4,5-d]-pyrimidine-2,7(3H,6H)-dione]
[4]
  IC50: 12 µg/mL (≈ 35.5 µM)
[5]
  CC50: 52 µg/mL (≈ 154 µM)

## O=c1[nH]c(=O)n([C@@H]2O[C@H](CO)[C@@H](O)[C@@H]2F)cc1I [FIAU, 1-(2-deoxy-2-fiuoro-β-D-arabinofuranosyl)-5-iodouracil]
DNA viruses
  activity against several DNA viruses: potent agents against several DNA viruses

## Cc1cn([C@@H]2O[C@H](CO)[C@@H](O)[C@@H]2F)c(=O)[nH]c1=O [FMAU, 1-(2-deoxy-2-fiuoro-β-D-arabinofuranosyl)thymine]
DNA viruses
  activity against several DNA viruses: potent agents against several DNA viruses

## Nc1nc2c(ncn2COC(CO)CO)c(=O)[nH]1 [Ganciclovir, 9-(1-hydroxymethyl-2-hydroxyethoxymethyl)guanine, reference compound]
[4]
  IC50: 2.1 µg/mL (≈ 8.23 µM)
[9]
  IC50: 2.7 µg/mL (≈ 10.6 µM)
[5]
  CC50: > 900 µg/mL
[10]
  CC50: > 100 µg/mL

## Nc1nc2c(ncn2COCCO)c(=O)[nH]1 [acyclovir, 9-(2-hydroxyethoxymethyl)guanine, reference compound]
[6]
  IC50: 0.2 µg/mL (≈ 0.888 µM)
[7]
  IC50: 0.2 µg/mL (≈ 0.888 µM)
[8]
  CC50 at 96 h: > 100 µg/mL
